# Source: patent US20210371385A1, “POLYMORPHIC AND AMORPHOUS FORMS OF ISOQUINOLINONE AND METHODS OF USE THEREOF” (Sojournix, Inc., priority 2018, published 2021)
# Key:
# [1] = Maximal absorbable dose (MAD) calculation; parameters: species or system humans
# Procedure: The maximal absorbable dose (MAD) of SJB-01, as described by Curatolo (1998), can be calculated according to the following equation: […]
# Using this equation, the maximal absorbable dose is 16 mg for SJB-01.
# [2] = Solubility by gravimetric method in 14 solvents; type: physicochemical; conditions: for solubility at 2 days: organic solvent or mixture, thermodynamic from solid; for Solubility: Water:DMSO (9:1 vol)
# Procedure: Solubility measurements were done by gravimetric method in 14 different solvents at two temperatures (23° C. and 50° C.). About 25-35 mg solid was dispensed in 2 mL vials and 0.75 mL solvent was added to form a slurry. The slurries were then stirred for two days. The vials were centrifuged and the supernatant was collected for solubility measurement by gravimetric method.
smiles,measurement,setting,value
"CCNn1c(C)c(C(=O)N[C@H](c2ccccc2)C2CC2)c2cccc(F)c2c1=O [SJB-01, 2-Ethylamino-8-fluoro-3-methyl-1-oxo-1,2-dihydro-isoquinoline-4-carboxylic acid ((S)-cyclopropyl-phenyl-methyl)-amide]",Maximal absorbable dose (MAD),"[1]; MAD=S*Ka*SIWV*SITT, S solubility at pH 6.5",16 mg
same,Maximal absorbable dose (MAD),"[1]; humans, solubility in 0.001M HCl pH 3.0, data from the β-form",16 mg
same,Maximal absorbable dose (MAD),"[1]; humans, solubility in FaSSIF, data from the β-form",22 mg
same,Maximal absorbable dose (MAD),"[1]; humans, solubility in FeSSIF (fed state), data from the β-form",38 mg
same,solubility at 2 days,"[2]; ACN, 23 °C",62 mg/mL
same,solubility at 2 days,"[2]; ACN, 50 °C",99 mg/mL
same,solubility at 2 days,"[2]; EtOAc, 23 °C",42 mg/mL
same,solubility at 2 days,"[2]; EtOAc, 50 °C",67 mg/mL
same,solubility at 2 days,"[2]; EtOH, 23 °C",> 42 mg/mL
same,solubility at 2 days,"[2]; IPA:water (85:15 vol), 23 °C",27 mg/mL
same,solubility at 2 days,"[2]; IPA:water (85:15 vol), 50 °C",60 mg/mL
same,solubility at 2 days,"[2]; IPAc, 23 °C",22 mg/mL
same,solubility at 2 days,"[2]; IPAc, 50 °C",37 mg/mL
same,solubility at 2 days,"[2]; MIBK, 23 °C",40 mg/mL
same,solubility at 2 days,"[2]; MIBK, 50 °C",61 mg/mL
same,solubility at 2 days,"[2]; MtBE, 23 °C",8 mg/mL
same,solubility at 2 days,"[2]; MtBE, 50 °C",11 mg/mL
same,solubility at 2 days,"[2]; THF, 23 °C",> 68 mg/mL
same,solubility at 2 days,"[2]; THF, 50 °C",> 68 mg/mL
same,Solubility,[2]; 23 °C,Nil
same,Solubility,[2]; 50 °C,Nil
same,solubility at 2 days,"[2]; acetic acid, 23 °C",> 72 mg/mL
same,solubility at 2 days,"[2]; acetic acid, 50 °C",> 72 mg/mL
same,solubility at 2 days,"[2]; acetone, 23 °C",> 67 mg/mL
same,solubility at 2 days,"[2]; acetone, 50 °C",> 67 mg/mL
same,solubility at 2 days,"[2]; dioxane, 23 °C",> 74 mg/mL
same,solubility at 2 days,"[2]; dioxane, 50 °C",> 74 mg/mL
same,solubility at 2 days,"[2]; ethanol, EtOH, 50 °C",> 42 mg/mL
same,solubility at 2 days,"[2]; isopropanol (IPA), IPA, 23 °C",29 mg/mL
same,solubility at 2 days,"[2]; isopropanol (IPA), IPA, 50 °C",64 mg/mL
same,solubility at 2 days,"[2]; MeOH, 23 °C, lot L100142-1-1",> 76 mg/mL
same,solubility at 2 days,"[2]; MeOH, 50 °C, lot L100142-1-1",> 76 mg/mL
